From ChEMBL document CHEMBL6109153, “Development of Membrane-Targeting Osthole Derivatives Containing Pyridinium Quaternary Ammonium Moieties with Potent Anti-Methicillin-Resistant Staphylococcus aureus Properties” (J Med Chem, 2025)
In brackets after ≈: the same amount, converted by molar mass. Activity calls are given as the source filed them. The calls are words filed in the database; no cut-off is given here.

Columns and labels:
Staphylococcus aureus [1] = experiment: Antibacterial activity against methicillin-resistant Staphylococcus aureus M17 incubated for 16 to 20 hrs by broth microdilution method; assay type: functional; conditions: time 16-20 hrs
Staphylococcus aureus [2] = experiment: Antibacterial activity against methicillin-resistant Staphylococcus aureus M23 incubated for 16 to 20 hrs by broth microdilution method; assay type: functional; conditions: time 16-20 hrs
Staphylococcus aureus [3] = experiment: Antibacterial activity against methicillin-resistant Staphylococcus aureus M21 incubated for 16 to 20 hrs by broth microdilution method; assay type: functional; conditions: time 16-20 hrs
Staphylococcus aureus [4] = experiment: Antibacterial activity against methicillin-resistant Staphylococcus aureus M12 incubated for 16 to 20 hrs by broth microdilution method; assay type: functional; conditions: time 16-20 hrs
Staphylococcus aureus [5] = experiment: Antibacterial activity against methicillin-resistant Staphylococcus aureus M14 incubated for 16 to 20 hrs by broth microdilution method; assay type: functional; conditions: time 16-20 hrs
Staphylococcus aureus [6] = experiment: Antibacterial activity against methicillin-resistant Staphylococcus aureus M13 incubated for 16 to 20 hrs by broth microdilution method; assay type: functional; conditions: time 16-20 hrs
[7] = Hemolytic activity against sheep erythrocytes; assay type: toxicity, cell-based, Ovis aries, Erythrocyte
Escherichia coli = experiment: Antibacterial activity against Escherichia coli ATCC 25922 incubated for 16 to 20 hrs by broth microdilution method; assay type: functional; conditions: time 16-20 hrs
Staphylococcus aureus [8] = experiment: Antibacterial activity against Staphylococcus aureus ATCC 29213 incubated for 16 to 20 hrs by broth microdilution method; assay type: functional; conditions: time 16-20 hrs
Staphylococcus aureus [9] = experiment: Antibacterial activity against methicillin-resistant Staphylococcus aureus M16 incubated for 16 to 20 hrs by broth microdilution method; assay type: functional; conditions: time 16-20 hrs
Staphylococcus aureus [10] = experiment: Antibacterial activity against methicillin-resistant Staphylococcus aureus M11 incubated for 16 to 20 hrs by broth microdilution method; assay type: functional; conditions: time 16-20 hrs
Staphylococcus aureus [11] = experiment: Antibacterial activity against methicillin-resistant Staphylococcus aureus M20 incubated for 16 to 20 hrs by broth microdilution method; assay type: functional; conditions: time 16-20 hrs
Staphylococcus aureus [12] = experiment: Antibacterial activity against methicillin-resistant Staphylococcus aureus M22 incubated for 16 to 20 hrs by broth microdilution method; assay type: functional; conditions: time 16-20 hrs
Staphylococcus aureus [13] = experiment: Antibacterial activity against methicillin-resistant Staphylococcus aureus M11 infected in BALB/c mouse model of Sepsis assessed as reduction in hepatic congestion at 10 mg/kg, ip measured after 48 hrs; assay type: functional, organism-based
Staphylococcus aureus [14] = experiment: Antibacterial activity against methicillin-resistant Staphylococcus aureus M11 infected in BALB/c mouse model of Sepsis assessed as reduction in bacterial load in skin tissues at 8 mg/kg measured after 24 hrs; assay type: functional
[15] = Toxicity in BALB/c mouse model of Sepsis infected with methicillin-resistant Staphylococcus aureus M11 assessed as survival rate at 10 mg/kg, ip measured after 7 days; assay type: organism-based; conditions: in vivo, 168 h, time 7 day
Staphylococcus aureus [16] = experiment: Antibacterial activity against methicillin-resistant Staphylococcus aureus M11 infected in BALB/c mouse model of Sepsis assessed as reduction in swelling in inner epidermal abscesses at 4 mg/kg measured after 24 hrs; assay type: functional, organism-based
Staphylococcus aureus [17] = experiment: Antibacterial activity against methicillin-resistant Staphylococcus aureus M11 infected in BALB/c mouse model of Sepsis assessed as vacuolar degeneration in liver cells at 10 mg/kg, ip measured after 48 hrs; assay type: functional, organism-based
[18] = Toxicity in BALB/c mouse model of Sepsis infected with methicillin-resistant Staphylococcus aureus M11 assessed as survival rate at 15 mg/kg, ip measured after 7 days; assay type: organism-based; conditions: in vivo, 168 h, time 7 day
Staphylococcus aureus [19] = experiment: Antibacterial activity against methicillin-resistant Staphylococcus aureus M11 infected in BALB/c mouse model of Sepsis assessed as reduction in abscess size on back at 4 mg/kg measured after 24 hrs; assay type: functional, organism-based
Staphylococcus aureus [20] = experiment: Antibacterial activity against methicillin-resistant Staphylococcus aureus M11 infected in BALB/c mouse model of Sepsis assessed as reduction in bacterial load in skin tissues at 4 mg/kg measured after 24 hrs; assay type: functional
Staphylococcus aureus [21] = experiment: Antibacterial activity against methicillin-resistant Staphylococcus aureus M11 infected in BALB/c mouse model of Sepsis assessed as reduction in bacterial load in kidney at 20 mg/kg, ip measured after 48 hrs; assay type: functional
Staphylococcus aureus [22] = experiment: Antibacterial activity against methicillin-resistant Staphylococcus aureus M11 infected in BALB/c mouse model of Sepsis assessed as reduction in inflammatory cell infiltration in skin tissues at 4 to 8 mg/kg measured after 24 hrs by H and E staining based analysis; assay type: functional, organism-based; conditions: dose 4-8 mg/kg
Staphylococcus aureus [23] = experiment: Antibacterial activity against methicillin-resistant Staphylococcus aureus M11 infected in BALB/c mouse model of Sepsis assessed as reduction in bacterial count in skin tissues at 4 mg/kg measured after 24 hrs relative to control; assay type: functional; design: scale not given: the % may be the effect or the level left
Staphylococcus aureus [24] = experiment: Antibacterial activity against methicillin-resistant Staphylococcus aureus M11 infected in BALB/c mouse model of Sepsis assessed as reduction in hepatic sinusoidal dilation at 10 mg/kg, ip measured after 48 hrs; assay type: functional, organism-based
Staphylococcus aureus [25] = experiment: Antibacterial activity against methicillin-resistant Staphylococcus aureus M11 infected in BALB/c mouse model of Sepsis assessed as reduction in bacterial load in spleen at 20 mg/kg, ip measured after 48 hrs; assay type: functional
Staphylococcus aureus [26] = experiment: Antibacterial activity against methicillin-resistant Staphylococcus aureus M11 infected in BALB/c mouse model of Sepsis assessed as reduction in redness in inner epidermal abscesses at 4 mg/kg measured after 24 hrs; assay type: functional, organism-based
Staphylococcus aureus [27] = experiment: Antibacterial activity against methicillin-resistant Staphylococcus aureus M11 infected in BALB/c mouse model of Sepsis assessed as reduction in bacterial load in liver at 20 mg/kg, ip measured after 48 hrs; assay type: functional
Staphylococcus aureus [28] = experiment: Antibacterial activity against methicillin-resistant Staphylococcus aureus M11 infected in BALB/c mouse model of Sepsis assessed as reduction in bacterial count in skin tissues at 8 mg/kg measured after 24 hrs relative to control; assay type: functional; design: scale not given: the % may be the effect or the level left
Staphylococcus aureus [29] = experiment: Induction of bacterial eradication in methicillin-resistant Staphylococcus aureus M11 at 8 times MIC incubated for 8 hrs by time-kill assay; assay type: functional, organism-based
[30] = Toxicity in BALB/c mouse model of Sepsis infected with methicillin-resistant Staphylococcus aureus M11 assessed as survival rate at 5 mg/kg, ip measured after 7 days; assay type: organism-based; conditions: in vivo, 168 h, time 7 day

CC(C)=CCc1c(OCCCCCSc2cc[n+](CC(=O)N(C)c3ccccc3)cc2)ccc2ccc(=O)oc12.[Br-]
MIC (Staphylococcus aureus [1]): 8 µg/mL | MIC (Staphylococcus aureus [2]): 2 µg/mL | MIC (Staphylococcus aureus [3]): 4 µg/mL | MIC (Staphylococcus aureus [4]): 4 µg/mL | MIC (Staphylococcus aureus [5]): 2 µg/mL | MIC (Staphylococcus aureus [6]): 4 µg/mL | HC50 [7]: > 160 µg/mL | MIC (Escherichia coli): > 128 µg/mL | MIC (Staphylococcus aureus [8]): 2 µg/mL | MIC (Staphylococcus aureus [9]): 2 µg/mL | MIC (Staphylococcus aureus [10]): 2 µg/mL | MIC (Staphylococcus aureus [11]): 2 µg/mL | MIC (Staphylococcus aureus [12]): 4 µg/mL

CN[C@H](CC(C)C)C(=O)N[C@H]1C(=O)N[C@@H](CC(N)=O)C(=O)N[C@H]2C(=O)N[C@H]3C(=O)N[C@H](C(=O)N[C@H](C(=O)O)c4cc(O)cc(O)c4-c4cc3ccc4O)[C@H](O)c3ccc(c(Cl)c3)Oc3cc2cc(c3O[C@@H]2O[C@H](CO)[C@@H](O)[C@H](O)[C@H]2O[C@H]2C[C@](C)(N)[C@H](O)[C@H](C)O2)Oc2ccc(cc2Cl)[C@H]1O [VANCOMYCIN]
Activity (Staphylococcus aureus [13]): inactive | Activity (Staphylococcus aureus [14]): 3.96 log10CFU/g | Survival [15]: 77.8% | Activity (Staphylococcus aureus [16]): Active | Activity (Staphylococcus aureus [17]): Active | Survival [18]: 100% | Activity (Staphylococcus aureus [19]): Active | Activity (Staphylococcus aureus [20]): 1.578 log10CFU/g | Activity (Staphylococcus aureus [21]): 3.92 log10CFU/ml | Activity (Staphylococcus aureus [22]): Active | Activity (Staphylococcus aureus [23]): 97.24% | Activity (Staphylococcus aureus [24]): inactive | Activity (Staphylococcus aureus [25]): 3.88 log10CFU/ml | Activity (Staphylococcus aureus [26]): Active | Activity (Staphylococcus aureus [27]): 3.54 log10CFU/ml | Activity (Staphylococcus aureus [28]): 99.989% | Activity (Staphylococcus aureus [29]): Not active; Compound Inhibited Bacterial Growth But Still Showed Surviving Bacteria Within The Detection Range After 8 H, Indicating Incomplete Bacterial Eradication | Survival [30]: 33.3%

COc1ccc2ccc(=O)oc2c1CC=C(C)C [OSTHOLE]
MIC (Staphylococcus aureus [1]): 64 µg/mL (≈ 262 µM) | MIC (Staphylococcus aureus [2]): > 64 µg/mL | MIC (Staphylococcus aureus [3]): > 64 µg/mL | MIC (Staphylococcus aureus [4]): 64 µg/mL (≈ 262 µM) | MIC (Staphylococcus aureus [5]): 64 µg/mL (≈ 262 µM) | MIC (Staphylococcus aureus [6]): > 64 µg/mL | HC50 [7]: > 80 µg/mL | MIC (Escherichia coli): > 64 µg/mL | MIC (Staphylococcus aureus [8]): > 64 µg/mL | MIC (Staphylococcus aureus [9]): 64 µg/mL (≈ 262 µM) | MIC (Staphylococcus aureus [10]): > 64 µg/mL | MIC (Staphylococcus aureus [11]): 64 µg/mL (≈ 262 µM) | MIC (Staphylococcus aureus [12]): 64 µg/mL (≈ 262 µM)

CC(C)=CCc1c(OCCCCCSc2cc[n+](CC(=O)N(C(C)C)C(C)C)cc2)ccc2ccc(=O)oc12.[Br-]
MIC (Staphylococcus aureus [1]): 2 µg/mL | MIC (Staphylococcus aureus [2]): 2 µg/mL | MIC (Staphylococcus aureus [3]): 2 µg/mL | MIC (Staphylococcus aureus [4]): 4 µg/mL | MIC (Staphylococcus aureus [5]): 2 µg/mL | MIC (Staphylococcus aureus [6]): 4 µg/mL | HC50 [7]: > 160 µg/mL | MIC (Escherichia coli): > 128 µg/mL | MIC (Staphylococcus aureus [8]): 2 µg/mL | MIC (Staphylococcus aureus [9]): 4 µg/mL | MIC (Staphylococcus aureus [10]): 1 µg/mL | MIC (Staphylococcus aureus [11]): 2 µg/mL | MIC (Staphylococcus aureus [12]): 2 µg/mL

CCCNC(=O)C[n+]1ccc(SCCCCCOc2ccc3ccc(=O)oc3c2CC=C(C)C)cc1.[Br-]
MIC (Staphylococcus aureus [1]): 8 µg/mL | MIC (Staphylococcus aureus [2]): 4 µg/mL | MIC (Staphylococcus aureus [3]): 8 µg/mL | MIC (Staphylococcus aureus [4]): 8 µg/mL | MIC (Staphylococcus aureus [5]): 2 µg/mL | MIC (Staphylococcus aureus [6]): 8 µg/mL | HC50 [7]: 190 µg/mL | MIC (Escherichia coli): > 128 µg/mL | MIC (Staphylococcus aureus [8]): 2 µg/mL | MIC (Staphylococcus aureus [9]): 2 µg/mL | MIC (Staphylococcus aureus [10]): 2 µg/mL | MIC (Staphylococcus aureus [11]): 2 µg/mL | MIC (Staphylococcus aureus [12]): 8 µg/mL
